# Data reported in patent US20050086710A1, “Method for generating recombinant human platelets for identifying therapeutic target proteins” (priority 2002, published 2005).
# Columns and labels:
# [1] = tested on: freshly isolated human platelets; experiment: FACS measurement of platelet surface markers after activation, freshly isolated platelets; type: cell-based; design: CD 41 (FACS) / CD 61 (FACS) / CD42b (FACS) / CD62P (FACS): unit not given here; conditions: TRAP 25 μM or ADP 5 or 20 μM, 10 min
# Description: Freshly drawn blood from human volunteers was transferred into a Falcon tube and spun down for 20 min. at 1080 rpm at 20° C. […] The mixture was spun down for 10 min. at 2100 rpm at 20° C. The pellet was resuspended in staining buffer (1×PBS (w/o CA^2+ Mg^+) with 0.1% sodium azide and 2% fetal bovine serum) in a volume of 40 μl. […] Then, the mixture was spun down for 5 min. at 1800 rpm (in a tabletop centrifuge). The supernatant was discarded, 300-400 μL staining-buffer were added. FACS measurements were done immediately. For the following studies, antibodies against the following antigens were used: [table] The antibodies were coupled to the following fluorescence systems, where appropriate (either directly or via secondary antibodies) and measured by fluorescence-activated cell sorting (FACS): […] Platelets which co-expressed the transgene GFP were gated for this marker by studying FITC fluorescence, and the same measurements were then exclusively related to this gate.
# [2] = tested on: modified platelets expressing GFP; experiment: FACS measurement of platelet surface markers after activation, modified platelets expressing GFP; type: cell-based, human; conditions: gated for GFP, TRAP 25 μM or ADP 5 or 20 μM
# Source text: (§1) Modified (E1/E3-deficient) flag-tagged adenoviruses for novel transgenes were generated that for expressing a transgene and green fluorescence protein (GFP) under control of two independent CMV promoters in a bi-cistronic system (He T C, Zhou S, da Costa L T, Yu J, Kinzler K W, Vogelstein B. A simplified system for generating modified adenoviruses. Proc Natl Acad Sci USA. 1998; 95:2509-14, purchased from Q Biogene, Heidelberg, Germany). As a control, Ad-GFP without further transgene was used. Large virus stocks were prepared and purified by centrifugation via cesium chloride density gradients. Adenoviral titers were determined using plaque titration and GFP expression titration in […] cells. • 1) Megakaryocytes were harvested at day 8-11 after isolation using a wide sterile single-use pipette and spun down in a 15 mL Falcon-tube at 1650 rpm for 8 min. • 2) The supernatant was discarded and the pellet resuspended in Opimem (at 4×10^5 cells/300 μL). • 3) Adenovirus was added to each well of a 24 well-plate for infection (multiplicity of infection (MOI) of 400 plaque forming units per cell). • 4) Cells were added and mixed by shaking, incubated for 30 min at 37° C. at 5% CO2, then • 5) spun down at 1000 rpm, 20° C. for 10 min.
# • 1) Platelets were harvested by centrifugation at 1800 rpm for 1¼ min at 20° C.; the supernatant was diluted 1:1 with platelet wash buffer (1×PBS (w/o CA^2+ Mg^+) with 0.1% sodium azide (pH 7.2+/−0.2)). • 2) They were filtered through a 0.2 μm filter prior to use, stored at 4° C. and spun down at 1800 rpm for 5 min. • 3) The supernatant was discarded. ≈1 mL was left in the tube and washed again with staining buffer (1×PBS (w/o CA^2+Mg^+) with 0.1% sodium azide and 2% fetal bovine serum (FBS) and stored at 4° C. • 4) The supernatant was completely discarded. • 5) The pellet was resuspended in platelet-staining-buffer ([…]). • 6) 20 μL of the activators thrombin receptor activating peptide (TRAP; 25 μM), ADP (5 or 20 μM) or thrombin (2 U/ml) were added. 35 μL of the fibrinogen receptor binding peptide RGD or its negative control, RED, were added where indicated. • 7) The mixture was incubated for 10 min. at room temperature in the dark. • 8) Antibodys were added directly (in a volume of 7 μL each except for LIBS-FITC at 3.5 μL) and incubated for 20-30 min. at room temperature in the dark. • 9) 500-600 μL platelet staining buffer was added. Then, the mixture was spun down for 5 min. at 1800 rpm (in a tabletop centrifuge). The supernatant was discarded, 300-400 μL staining-buffer were added. FACS measurements were done immediately.
# For the following studies, antibodies against the following antigens were used:
# The antibodies were coupled to the following fluorescence systems, where appropriate (either directly or via secondary antibodies) and measured by fluorescence-activated cell sorting (FACS):
# Platelets which co-expressed the transgene GFP were gated for this marker by studying FITC fluorescence, and the same measurements were then exclusively related to this gate.
# [3] = tested on: megakaryocyte-derived platelets; experiment: FACS measurement of platelet surface markers after activation, megakaryocyte-derived platelets; type: cell-based, human; design: unit not given here; conditions: TRAP 25 μM or ADP 5 or 20 μM, 10 min
# Description: Then, the mixture was spun down for 5 min. at 1800 rpm (in a tabletop centrifuge). The supernatant was discarded, 300-400 μL staining-buffer were added. FACS measurements were done immediately. For the following studies, antibodies against the following antigens were used: [table] The antibodies were coupled to the following fluorescence systems, where appropriate (either directly or via secondary antibodies) and measured by fluorescence-activated cell sorting (FACS): [table] Platelets which co-expressed the transgene GFP were gated for this marker by studying FITC fluorescence, and the same measurements were then exclusively related to this gate.
# [4] = tested on: freshly isolated platelets; experiment: ELISA, release of β-thromboglobulin, freshly isolated platelets; type: cell-based, human; conditions: thrombin, amount not stated (basal 59±6)
# Description: (§2) Freshly drawn blood from human volunteers was transferred into a Falcon tube and spun down for 20 min. at 1080 rpm at 20° C. The supernatant yielded the PRP (platelet-rich-plasma) and was transferred to a new tube and diluted 1:4 with wash-buffer (1×PBS (w/o CA^2+ Mg^+) with 0.1% sodium azide, pH 7.2+/−0.2, filtered through a 0.2 μm filter prior to use and stored at 4° C.). The mixture was spun down for 10 min. at 2100 rpm at 20° C. The pellet was resuspended in staining buffer (1×PBS (w/o CA^2+ Mg^+) with 0.1% sodium azide and 2% fetal bovine serum) in a volume of 40 μl.
# (§3) ELISA Assays for β-thromboglobulin (Asserachrom β-TG, Roche Diagnostics, Mannheim, Germany) and platelet-derived growth factor (PDGF; PDGF-AB Immunoassay, Qiagen, Hilden, Germany) were performed according to the manufacturers' instructions. By using these assays, the thrombin dependent release of both mediators from platelets was assessed.
# [5] = tested on: stem cell-derived platelets after infection with Ad-GFP; experiment: ELISA, release of β-thromboglobulin, platelets after infection with Ad-GFP; type: cell-based; conditions: thrombin vs basal
# Source text: as §1, with “10 min. […]” for “10 min.”
# [6] = tested on: stem cell-derived platelets; experiment: ELISA, thrombin dependent release of PDGF, stem cell-derived platelets; type: cell-based
# Description: as §3
# [7] = tested on: stem cell-derived platelets after infection with Ad-GFP; experiment: ELISA, release of PDGF, platelets after infection with Ad-GFP; type: cell-based; conditions: thrombin vs basal
# Source text: as §1, with “10 min. […]” for “10 min.”
# [8] = tested on: stem cell-derived platelets; experiment: ELISA, thrombin dependent release of β-thromboglobulin, stem cell-derived platelets; type: cell-based
# Description: as §3
# [9] = tested on: freshly isolated platelets; experiment: ELISA, release of PDGF, freshly isolated platelets; type: cell-based, human
# Description: as §2, §3
Molecule,CD 41 (FACS) [1],CD42b (FACS) [1],CD 61 (FACS) [1],CD62P (FACS) [1],PAC-1 (FACS) [1],CD 41 (FACS) [2],CD42b (FACS) [2],CD 61 (FACS) [2],CD62P (FACS) [2],PAC-1 (FACS) [2],CD 41 (FACS) [3],CD42b (FACS) [3],CD 61 (FACS) [3],CD62P (FACS) [3],further results
Nc1ncnc2c1ncn2[C@@H]1O[C@H](COP(=O)(O)OP(=O)(O)O)[C@@H](O)[C@H]1O [ADP],92 ± 37,58 ± 15,16 ± 6,75 ± 18,90 ± 26,216 ± 18,95 ± 63,333 ± 78,314 ± 153,198 ± 10,258 ± 24,46 ± 25,76 ± 9.5,121 ± 61,
thrombin,,,,,,,,,,,,,,,Release of β-thromboglobulin [4]: 115±10 U/ml; increase in βTG release [5]: four-fold; release of PDGF ([6]; 0.2 U thrombin (basal 280±95)): 590 ± 22 pg/mL; release of PDGF ([6]; 2 U thrombin (basal 280±95)): 610 pg/mL; increase of PDGF release [7]: 123±7%; Release of β-thromboglobulin ([8]; 0.2 U thrombin (basal 52±19)): 219±11 U/ml; Release of β-thromboglobulin ([8]; 2 U thrombin (basal 52±19)): 250±92 U/ml; release of PDGF ([9]; 0.2 U thrombin (basal 214±11)): 566 ± 10 pg/mL; release of PDGF ([9]; 1 U thrombin (basal 214±11)): 664 ± 12 pg/mL
thrombin receptor activating peptide [TRAP],99 ± 25,40 ± 2,19 ± 4.8,162 ± 50,122 ± 34,213 ± 34,81 ± 29,325 ± 73,299 ± 146,178 ± 41,248 ± 23,75 ± 41,75 ± 14,138 ± 69,
